Common to all, as to format: biochemical
Test [1] has as its target T1, recombinant human DAO (diamine oxidase) (Homo sapiens, UniProt P19801).
T1 construct: purchased R&D systems
T1 sequence (P19801 20-751): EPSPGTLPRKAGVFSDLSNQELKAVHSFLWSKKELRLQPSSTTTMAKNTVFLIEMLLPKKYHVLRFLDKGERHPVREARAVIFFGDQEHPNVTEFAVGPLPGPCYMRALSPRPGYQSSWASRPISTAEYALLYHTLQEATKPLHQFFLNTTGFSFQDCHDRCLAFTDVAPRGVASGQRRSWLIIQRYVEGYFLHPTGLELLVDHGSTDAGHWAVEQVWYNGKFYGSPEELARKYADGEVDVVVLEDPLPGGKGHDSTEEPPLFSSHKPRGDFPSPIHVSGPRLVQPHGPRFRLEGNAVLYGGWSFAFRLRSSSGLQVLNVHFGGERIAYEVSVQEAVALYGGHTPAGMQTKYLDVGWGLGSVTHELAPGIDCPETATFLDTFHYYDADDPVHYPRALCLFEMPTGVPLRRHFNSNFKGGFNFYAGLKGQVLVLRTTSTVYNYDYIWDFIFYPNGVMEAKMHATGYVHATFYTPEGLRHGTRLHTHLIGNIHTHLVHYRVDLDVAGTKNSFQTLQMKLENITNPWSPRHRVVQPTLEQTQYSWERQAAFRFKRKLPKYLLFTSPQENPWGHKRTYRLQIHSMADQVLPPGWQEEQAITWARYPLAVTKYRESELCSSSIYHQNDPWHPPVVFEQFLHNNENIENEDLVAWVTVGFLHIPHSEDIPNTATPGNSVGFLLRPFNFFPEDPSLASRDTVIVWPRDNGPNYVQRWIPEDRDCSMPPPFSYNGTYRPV
Put plainly: Amplex Red HRP-coupled amine oxidase activity evaluation, recombinant human DAO. The note with it: for IC50: substrate 1 mM putrescine, read-out: Inhibitory Activity (IC50, nM) DAO. How it is done:
[The source words this procedure for another target and says it was used here with some conditions changed.] (§1) The compounds according to the present technology were evaluated in terms of activity on recombinant human VAP-1 (R&D systems) by measuring the level of hydrogen peroxide in horseradish peroxidase (HRP)-coupled reaction using Amplex Red Hydrogen Peroxide Assay Kit (Molecular Probes, Invitrogen, USA). The experiment was carried out at room temperature using benzylamine as a substrate. In the HRP-coupled reaction, hydrogen peroxide oxidation of 10-acetyl-3,7-dihydroxyphenoxazine (Amplex Red reagent) produces resorufin, which is a highly fluorescent compound. Briefly, the test compound was dissolved in dimethyl sulfoxide (DMSO) at a concentration of 20 mM. The dose-response assessment was made by 1:3 serial dilution in DMSO, thereby creating an 8-point curve. The concentration of the upper part was controlled according to the efficacy of the compounds, followed by dilution with a reaction buffer solution to obtain a final DMSO concentration of less than 1%. To each well of a 96 black well plate, human VAP-1 purified in 50 mM sodium phosphate buffer solution (pH7.4) was added. The test compounds dissolved in DMSO were incubated with the human VAP-1 enzymes at 37° C. for 30 minutes. After 30-minute incubation, each well was added with a reaction mixture containing 200 uM Amplex Red reagent prepared from 50 mM sodium phosphate buffer solution (pH 7.4), 1 mM benzylamine, and 1 U/mL HRP. Fluorescence intensity was measured at several time points during 1-2 hours using a microplate reader (Flexstation3, Molecular Devices) under the wavelength condition exciting at 544 nm and reading the emission at 590 nm. The inhibitory effect of the compounds was measured as a decrease (%) in the signal rate as compared to the control group without any inhibitor (only diluted DMSO). Data was fixed to a logistic model with four variables and IC50 value was calculated using GraphPad Prism program.

The target in test [2] is T2, recombinant human MAO-B (monoamine oxidase-B) (Homo sapiens, UniProt P27338).
T2 construct: purchased Sigma-Aldrich
T2 sequence (P27338 1-520): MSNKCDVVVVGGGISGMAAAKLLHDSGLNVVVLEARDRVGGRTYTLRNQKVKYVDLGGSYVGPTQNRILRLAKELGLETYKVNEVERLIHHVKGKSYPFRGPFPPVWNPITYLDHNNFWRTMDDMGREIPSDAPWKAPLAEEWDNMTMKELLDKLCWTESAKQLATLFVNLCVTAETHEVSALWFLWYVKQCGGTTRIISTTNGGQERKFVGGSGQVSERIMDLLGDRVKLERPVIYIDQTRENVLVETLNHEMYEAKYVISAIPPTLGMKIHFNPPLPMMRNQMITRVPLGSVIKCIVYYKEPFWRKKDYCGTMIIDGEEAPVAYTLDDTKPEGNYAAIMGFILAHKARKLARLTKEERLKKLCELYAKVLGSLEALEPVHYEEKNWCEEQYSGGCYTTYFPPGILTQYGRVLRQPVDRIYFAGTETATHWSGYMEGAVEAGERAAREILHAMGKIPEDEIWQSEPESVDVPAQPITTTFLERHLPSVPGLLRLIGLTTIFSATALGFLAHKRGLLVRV
Put plainly: Amplex Red HRP-coupled amine oxidase activity evaluation, recombinant human MAO-B. The note with it: substrate 1 mM benzylamine; read-out: Inhibitory Activity (IC50, nM) MAO-B. How it is done:
[The source words this procedure for another target and says it was used here with some conditions changed.] as §1

A further test deals with T3, recombinant human VAP-1 (Homo sapiens, UniProt Q16853).
T3 construct: purchased R&D systems
T3 sequence (Q16853 1-763): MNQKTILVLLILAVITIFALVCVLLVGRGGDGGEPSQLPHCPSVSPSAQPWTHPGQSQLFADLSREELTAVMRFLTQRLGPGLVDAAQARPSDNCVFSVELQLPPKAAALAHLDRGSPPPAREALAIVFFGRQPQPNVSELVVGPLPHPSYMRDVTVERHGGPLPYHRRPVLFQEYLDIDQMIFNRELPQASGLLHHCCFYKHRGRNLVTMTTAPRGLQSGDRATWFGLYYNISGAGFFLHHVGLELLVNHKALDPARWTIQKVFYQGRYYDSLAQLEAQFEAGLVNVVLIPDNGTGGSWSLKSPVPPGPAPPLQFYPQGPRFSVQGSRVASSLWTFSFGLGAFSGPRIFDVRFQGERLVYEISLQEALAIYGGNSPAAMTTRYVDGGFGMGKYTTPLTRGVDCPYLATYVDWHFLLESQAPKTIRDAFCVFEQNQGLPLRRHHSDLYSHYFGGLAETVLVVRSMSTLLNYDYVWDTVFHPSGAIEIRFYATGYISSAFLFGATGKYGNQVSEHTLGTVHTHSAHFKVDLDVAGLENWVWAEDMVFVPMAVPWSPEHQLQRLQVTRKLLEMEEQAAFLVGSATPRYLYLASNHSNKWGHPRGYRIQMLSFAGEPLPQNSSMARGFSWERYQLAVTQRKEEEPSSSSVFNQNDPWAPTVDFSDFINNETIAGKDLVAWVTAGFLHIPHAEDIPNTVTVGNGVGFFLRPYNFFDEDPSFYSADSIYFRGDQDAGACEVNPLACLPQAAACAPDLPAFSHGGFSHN
The experiment in a line: Amplex Red HRP-coupled amine oxidase activity evaluation, recombinant human VAP-1. The note with it: substrate 1 mM benzylamine; 30 min preincubation at 37° C.; read-out: Inhibitory Activity (IC50, nM) human VAP-1. How it is done:
as §1

The target in test [3] is T4, recombinant human MAO-A (monoamine oxidase-A) (Homo sapiens, UniProt P21397).
T4 construct: purchased Sigma-Aldrich
T4 sequence (P21397 1-527): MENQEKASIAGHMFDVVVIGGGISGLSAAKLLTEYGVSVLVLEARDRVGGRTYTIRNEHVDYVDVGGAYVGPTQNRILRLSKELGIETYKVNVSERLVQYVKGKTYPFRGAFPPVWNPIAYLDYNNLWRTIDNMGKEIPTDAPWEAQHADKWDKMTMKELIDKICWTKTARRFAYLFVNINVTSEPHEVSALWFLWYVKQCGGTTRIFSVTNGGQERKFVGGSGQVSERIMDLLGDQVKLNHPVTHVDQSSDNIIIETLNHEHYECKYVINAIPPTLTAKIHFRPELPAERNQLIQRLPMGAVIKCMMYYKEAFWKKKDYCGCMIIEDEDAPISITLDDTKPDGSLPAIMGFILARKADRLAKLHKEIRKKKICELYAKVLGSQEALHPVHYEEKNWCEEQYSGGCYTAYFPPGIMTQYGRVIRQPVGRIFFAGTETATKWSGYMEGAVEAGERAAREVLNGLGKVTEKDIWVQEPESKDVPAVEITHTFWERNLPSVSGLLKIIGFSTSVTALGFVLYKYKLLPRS
The experiment in a line: Amplex Red HRP-coupled amine oxidase activity evaluation, recombinant human MAO-A. The note with it: substrate 0.5 mM tyramine; read-out: Inhibitory Activity (IC50, nM) MAO-A. How it is done:
[The source words this procedure for another target and says it was used here with some conditions changed.] as §1

pIC50: −log10 of the molar value. Counter-ions that a name gives are not always drawn. Like-named read-outs stand apart in the source and are kept apart here.

A word on the IC50: it is the concentration needed to halve the response being measured. One may read the pIC50 as the negative decadic logarithm of the IC50, by convention in mol/L.

Turning to `CN1C(=O)CCc2cc(-c3ccc(-n4nnn(CC(CN)=C(F)F)c4=O)cc3)ccc21` [Example 21, 6-[4-[4-[2-(aminomethyl)-3,3-difluoro-allyl]-5-oxo-tetrazol-1-yl]phenyl]-1-methyl-3,4-dihydroquinolin-2-one trifluoroacetate], the IC50 was 38 nM in test [1], 43 nM in test [2], 0.5 nM on recombinant human VAP-1 and greater than 100000 nM in test [3].
Regarding `CCn1cc(-c2ccc(-n3nnn(CC(CN)=C(F)F)c3=O)cc2)cn1` [Example 22, 1-[2-(aminomethyl)-3,3-difluoro-allyl]-4-[4-(1-ethylpyrazol-4-yl)phenyl]tetrazol-5-one trifluoroacetate], the pIC50 in test [1] was 7.02. Also, the results for the IC50 (in test [2]; at recombinant human VAP-1; in test [3]) were 74 nM, 0.3 nM and 98400 nM, respectively.
As to `Cc1ccc(-c2ccc(S(C)(=O)=O)cc2)nc1-n1nnn(CC(CN)=C(F)F)c1=O` [Example 23, 1-[2-(aminomethyl)-3,3-difluoro-allyl]-4-[3-methyl-6-(4-methylsulfonylphenyl)-2-pyridyl]tetrazol-5-one trifluoroacetate], the concentration for half-maximal inhibition (IC50) in test [1] was greater than 100000 nM; in test [2], 59400 nM; on recombinant human VAP-1 it was greater than 100 nM; in test [3], greater than 100000 nM.
As for `CCn1cc(-c2ccc(C)c(-n3nnn(CC(CN)=C(F)F)c3=O)n2)ccc1=O` [Example 24, 5-[6-[4-[2-(aminomethyl)-3,3-difluoro-allyl]-5-oxo-tetrazol-1-yl]-5-methyl-2-pyridyl]-1-ethyl-pyridin-2-one trifluoroacetate], the IC50 in test [1] was greater than 100000 nM; in test [2], greater than 100000 nM; at recombinant human VAP-1, greater than 100 nM; in test [3], greater than 100000 nM.
Take `Cc1ccc(-c2cc(C)c3c(c2)CCC(=O)N3)nc1-n1nnn(CC(CN)=C(F)F)c1=O` [Example 25, 6-[6-[4-[2-(aminomethyl)-3,3-difluoro-allyl]-5-oxo-tetrazol-1-yl]-5-methyl-2-pyridyl]-8-methyl-3,4-dihydro-1H-quinolin-2-one trifluoroacetate]: the pIC50 in test [1] is 5.96. For the same compound, the half-maximal inhibitory concentration (IC50) is greater than 100000 nM in test [2], 13 nM at recombinant human VAP-1 and greater than 100000 nM in test [3].
Turning to `Cc1ccc(-c2ccc3c(c2)CCC(=O)N3C)nc1-n1nnn(CC(CN)=C(F)F)c1=O` [Example 26, 6-[6-[4-[2-(aminomethyl)-3,3-difluoro-allyl]-5-oxo-tetrazol-1-yl]-5-methyl-2-pyridyl]-1-methyl-3,4-dihydroquinolin-2-one trifluoroacetate], in test [1], the pIC50 is 5.36. Also, the IC50 is greater than 100000 nM in test [2], 19 nM on recombinant human VAP-1 and greater than 100000 nM in test [3].
On to `CS(=O)(=O)c1ccc(-c2cccc(Cn3nnn(CC(CN)=C(F)F)c3=O)c2)cc1` [Example 27, 1-[2-(aminomethyl)-3,3-difluoro-allyl]-4-[[3-(4-methylsulfonylphenyl)phenyl]methyl]tetrazol-5-one trifluoroacetate], for which the IC50 in test [1] was 513 nM; in test [2] it was 48400 nM; on recombinant human VAP-1 it was 1 nM; in test [3] it was greater than 100000 nM.
For `NCC(Cn1nnn(Cc2cccc(-c3ccc(N4CCNCC4)cc3)c2)c1=O)=C(F)F` [Example 28, 1-[2-(aminomethyl)-3,3-difluoro-allyl]-4-[[3-(4-piperazin-1-ylphenyl)phenyl]methyl]tetrazol-5-one di-trifluoroacetate], in that order: 5160 nM, 35800 nM, 1.8 nM and 33000 nM.
As to `CN(C)c1ccc(-c2cccc(Cn3nnn(CC(CN)=C(F)F)c3=O)c2)cn1` [Example 29, 1-[2-(aminomethyl)-3,3-difluoro-allyl]-4-[[3-[6-(dimethylamino)-3-pyridyl]phenyl]methyl]tetrazol-5-one trifluoroacetate], the IC50 turned out to be 159 nM in test [1], 14300 nM in test [2], 0.7 nM on recombinant human VAP-1 and 80100 nM in test [3].
For `NCC(Cn1nnn(Cc2cccc(-c3ccc4c(c3)OCO4)c2)c1=O)=C(F)F` [Example 30, 1-[2-(aminomethyl)-3,3-difluoro-allyl]-4-[[3-(1,3-benzodioxol-5-yl)phenyl]methyl]tetrazol-5-one trifluoroacetate], the IC50 in test [1] stood at 1500 nM; in test [2] it was 206 nM; at recombinant human VAP-1 it was 0.8 nM; in test [3] it was 70900 nM.

(Values after US12110279B2, “Triazolones, tetrazolones, and imidazolones, or their salts, and pharmaceutical compositions comprising the same” (Yuhan Corporation, priority 2021, dated 2024).)
